In patent US20260042745A1, “PYRROLIDINE-2-CARBOXAMIDE DERIVATIVES AS PROSTAGLANDIN E2 RECEPTOR 4 (EP4) AGONISTS FOR THE TREATMENT OF GASTROINTESTINAL AND PULMONARY DISEASES” (NXERA PHARMA UK LIMITED, priority 2022, published 2026):

Assays:
[1] = Unidirectional Caco-2 cell permeability assay; assay type: in vitro ADME; conditions: human, apical pH 6.5, basolateral pH 7.4, 1 hour, 37° C., n=2
Protocol: Caco-2 cells (ECACC) were seeded onto 24-well Transwell plates at 2×10^5 cells per well and used in confluent monolayers after a 21 day culture at 37° C. under 500 CO2. Test compounds were incubated at 10 μM, 0.2% DMSO final, n=2 in assay buffer (Hanks balanced salt solution supplemented with 25 mM HEPES, adjusted to pH 6.5). Hanks balanced salt solution supplemented with 25 mM HEPES, adjusted to pH 7.4 (0.2% DMSO final) was used for the basolateral chamber (as receiver).
Incubations were performed at 37° C., with samples removed from both donor and acceptor chambers at T=0 and 1 hour and compound analysed by mass spectrometry (LC-MS/MS) including an analytical internal standard ([…] carbamazepine).
Apparent permeability (Papp) values are shown in Table 3 and were determined from the relationship:
Where V is the volume of each Transwell compartment (apical 125 μL, basolateral 600 μL), and concentrations are the relative MS responses for compound (normalized to internal standard) in the donor chamber before incubation and acceptor chamber at the end of the incubation Area=area of cells exposed for drug transfer (0.33 cm^2).
Lucifer Yellow (LY) was added to the apical buffer in all wells to assess viability of the cell layer. As LY cannot freely permeate lipophilic barriers, a high degree of LY transport indicates poor integrity of the cell layer and wells with a LY Papp>10×10^−6 cm/s were rejected.
Compound recovery from the wells was determined from MS responses (normalized to internal standard) in donor and acceptor chambers at the end of incubation compared to response in the donor chamber pre-incubation.

human EP4 = biological target: T1, human EP4 (Homo sapiens, UniProt P35408); assay: cAMP Gs functional assay (HTRF cAMP dynamic-2) in EP4-transfected HEK293 cells; assay type: cell-based; conditions: HEK293 cells transfected with EP4 BacMam virus; for EC50: 30 min at 37° C., HTRF cAMP, read-out: cAMP human EP4 pEC50 (converted); for cAMP human EP4 Emax: positive control PGE2
T1 construct: expressed in transfected cells; host or cells: HEK293 cells transduced with EP4 BacMam baculovirus
Protocol: Cloning, Baculovirus generation, large scale infection of HEK293 cells and membrane preparation: Human prostaglandin E2 receptor 4 (EP4) was cloned into pBacMam expression vector (GeneScript, UK). Transposition of EP4 DNA was performed using Invitrogen's Bac-to-Bac Baculovirus Expression Systems. P0 baculovirus was generated by transfecting SF9 Cells with bacmid DNA using Cellfectin II transfection reagent (ThermoFisher Scientific, UK). Following P0 generation P1 virus was then generated ready for large scale infection and membrane preparation. HEK293 cells were grown in DMEM (ThermoFisher Scientific, UK), supplemented with 10% heat inactivated fetal bovine serum (FBS). Cells were infected at a seeding density of 3.5 million cells/mL in 500 cm^3 flasks at 5% v/v EP4 Bacman. Expression was carried out over a 36 hour period at 37° C. with 5% CO2. The cells were removed using PBS and a cell scrapper. The cell culture was centrifuged at 2500 RPM for 10 mins at 4° C. The supernatant was then poured off and the pellet stored at −80° C. The pellet was defrosted and re-suspended in 15 mL of homogenising buffer (20 mM HEPES, 10 mM EDTA, pH 7.4). Then homogenised in mechanical homogeniser (VMR) for 10 seconds. The membrane was centrifuged in centrifuge tubes at 40,000 g for 15 mins at 4° C. The supernatant was poured away and re-suspended in 15 mL of homogenising buffer and homogenised for 20 seconds. The membrane was then centrifuged at 40,000 g for 45 mins at 4° C. The membrane was then re-suspended in 3 mL of storage buffer (20 mM HEPES, 0.1 mM EDTA, pH 7.4) mixing well. The resulting membranes were then stored at −80° C.
cAMP Gs Functional Assay: cAMP production following EP4 receptor activation was determined using the Homogeneous Time-Resolved Fluorescence (HTRF) cAMP dynamic-2 assay (Cisbio, France). HEK293 cells were transfected using a 0.5% EP4 Bacman virus for 36 hours, before dissociating the cells, and freezing at −150° C.
On the day of testing, increasing concentration of test compounds, alongside positive controls ([…] PGE2 (Tocris, Abingdon, UK)) and negative control (DMSO (Sigma-Aldrich, UK) were added to a ProxiPlate-384 Plus, White 384-shallow well Mircoplate, (PerkinElmer, USA) using the ECHO dispense.
Cells were defrosted in a water bath and resuspended in DMEM supplemented with 10% FBS before centrifuging at 1200 RPM for 5 mins to form a pellet. The pellet was resuspended in assay buffer (DMEM+0.5 mM IBMX (Tocris, Abingdon, UK)) to 0.5×10^6 cells/mL. Cell suspension, for a final assay concentration of 5000 cell/well was added using the multidrop to the pre-dispensed assay plate. The plate was then incubated at 37° C. for 30 mins, with 5% CO2. The cAMP production was determined as manufacturer's instructions, before plates were read on a PheraStar fluorescence plate reader (BMG LabTech, Germany).

T1 sequence (P35408 whole entry): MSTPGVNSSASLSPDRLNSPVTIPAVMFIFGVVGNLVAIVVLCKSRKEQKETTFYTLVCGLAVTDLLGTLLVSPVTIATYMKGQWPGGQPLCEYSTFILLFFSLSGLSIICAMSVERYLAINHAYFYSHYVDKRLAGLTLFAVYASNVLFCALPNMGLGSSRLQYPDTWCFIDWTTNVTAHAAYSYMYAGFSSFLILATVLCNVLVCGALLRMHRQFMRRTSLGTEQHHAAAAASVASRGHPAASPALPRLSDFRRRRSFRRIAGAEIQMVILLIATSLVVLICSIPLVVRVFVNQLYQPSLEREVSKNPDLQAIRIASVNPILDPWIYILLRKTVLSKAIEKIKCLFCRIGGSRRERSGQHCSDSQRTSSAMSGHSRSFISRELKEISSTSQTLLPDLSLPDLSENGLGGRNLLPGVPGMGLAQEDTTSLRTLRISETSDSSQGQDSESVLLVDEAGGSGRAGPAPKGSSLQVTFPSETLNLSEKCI

Row | Papp A→B at 1 h, 10 μM [1] | EC50 (human EP4) | cAMP human EP4 Emax (human EP4) | SMILES
1 | 0.26 ×10⁻⁶ cm/s | 158 nM | 98% | Cc1cc(S(N)(=O)=O)ccc1-c1cccc(CN2C[C@H](O)C[C@@H]2C(=O)N[C@@H](C)c2ccc(C(=O)O)cc2)c1 [Example 4, 4-((S)-1-((2R,4R)-4-hydroxy-1-((2′-methyl-4′-sulfamoyl-[1,1′-biphenyl]-3-yl)methyl)pyrrolidine-2-carboxamido)ethyl)benzoic acid]
2 | 0.32 ×10⁻⁶ cm/s | 0.0316 nM | 97% | Cc1cc(O)ccc1-c1cc(O)cc(CN2CCC[C@@H]2C(=O)N[C@@H](C)c2ccc(C(=O)O)cc2)c1 [Example 33, 4-((S)-1-((R)-1-((4′,5-dihydroxy-2′-methyl-[1,1′-biphenyl]-3-yl)methyl)pyrrolidine-2-carboxamido)ethyl)benzoic acid]
3 | < 0.1 ×10⁻⁶ cm/s | 0.0501 nM | 97% | Cc1cc(O)ccc1-c1cc(O)cc(CN2CCC[C@@H]2C(=O)N[C@@H](C)c2ccc(C(=O)O)c(O)c2)c1 [Example 35, 4-((S)-1-((R)-1-((4′,5-dihydroxy-2′-methyl-[1,1′-biphenyl]-3-yl)methyl)pyrrolidine-2-carboxamido)ethyl)-2-hydroxybenzoic acid]
4 | < 0.12 ×10⁻⁶ cm/s | 100 nM | 90% | C[C@H](NC(=O)[C@H]1CCCN1Cc1ccc(O)c(-c2ccc(S(N)(=O)=O)cc2)c1)c1ccc(C(=O)O)cc1 [Example 19]
5 | 0.85 ×10⁻⁶ cm/s | 501 nM | 91% | Cc1cc(C(N)=O)ccc1-c1cccc(CN2C[C@H](O)C[C@@H]2C(=O)N[C@@H](C)c2ccc(C(=O)O)cc2)c1 [Example 6, 4-((S)-1-((2R,4R)-1-((4′-carbamoyl-2′-methyl-[1,1′-biphenyl]-3-yl)methyl)-4-hydroxypyrrolidine-2-carboxamido)ethyl)benzoic acid]
6 | 0.16 ×10⁻⁶ cm/s | 25.1 nM | 99% | Cc1cc(S(N)(=O)=O)ccc1-c1cncc(CN2CCC[C@@H]2C(=O)N[C@@H](C)c2ccc(C(=O)O)cc2)c1 [Example 24, 4-((S)-1-((R)-1-((5-(2-methyl-4-sulfamoylphenyl)pyridin-3-yl)methyl)pyrrolidine-2-carboxamido)ethyl)benzoic acid]
